Measured values published in patent publication US7195788B2, “Pesticidal compositions from prunus” (Premier Botanicals, Ltd., priority 2001, dated 2007).
Several values for one entry are separate records, joined by “and”; a condition that tells them apart may be missing. Equal values may be shown once.

Tests used:
Uncinula necator = assay: Powdery mildew development on 'Pinot Noir' grape leaves after spray treatment; assay type: in vivo; conditions: for Powdery mildew disease rating on grape leaves, per repetition: scale 1 = no symptoms, 5 = 100% infected, Prunus 1 crude, Prunus 2 and SB at 1000 ppm, repetitions 1-3
Experimental: Prunus compositions (including crude Prunus virginiana hydrodistillate, collected in vessel 112 of FIG. 2, having the analysis of the first entry of Table 1) were tested on grape plants (Pinot Noir) infected with powdery mildew. The experiment was set up in a complete randomized block design with three repetition, four treatments each, with three observations per treatment. Treatments were as follows: Prunus 1: crude hydrodistillate from Prunus biomass, Prunus 2: benzaldehyde separated from the hydrodistillate at 1,000 ppm, SB-synthetic benzaldehyde, and control-distilled water.
Treatments were applied to infected leaves in early August and in early September. Three adjacent leaves on a vine were sprayed with each treatment and replicated on three different vines (plants). The solutions were applied with a mist sprayer until run off. The first disease reading was obtained in early September, one month after the first treatment application. The second disease reading was obtained in early October, about one month after the second treatment application.
Disease ratings were based on a scale of 1 to 5, with 1 indicating no symptoms and 5 indicating 100-percent infected. The results are summarized in Table 5, in which each datum is a mean value of the three observations for each treatment made on the two dates disease readings were obtained. […] The crude hydrodistillate composition contained all of the volatile chemicals identified above in Example 1. The increased fungicidal action of the crude hydrodistillate indicated synergistic action of the Prunus volatiles relative to purified or synthetic benzaldehyde.

Cytospora chrysosperma = assay: In vitro mycelia growth of Cytospora chrysosperma on potato dextrose agar containing the test material; assay type: cell-based; conditions: 23° C.
Experimental: The effectiveness of Prunus compositions was compared to the effectiveness of synthetic benzaldehyde in stopping or restricting the growth of the Cytospora fungus on potato dextrose agar. The volatile compounds of a Prunus virginiana hydrodistillate were concentrated by counter-flow flash evaporation (i.e. collected from vessel 122 as shown in FIG. 2) to provide a concentrated extract that was further processed by distillation to remove hydrocyanic acid. The resulting extract was analyzed and found to contain 1.2% trans-2-hexenal, 98.5% benzaldehyde, and traces of other compounds originally in the hydrodistillate. This extract was reconstituted in distilled water to provide a solution containing approximately 10,000 ppm of Prunus volatiles. This stock solution was used to prepare a series of agar solutions containing between 0 and 10,000 ppm Prunus volatiles. The Prunus material was blended into the agar after autoclaving and prior to pouring the agar into Petri plates. […] All plates were inoculated with a 5-mm potato dextrose agar plug from a two-week-old culture of C. chrysosperma.

Sphaerotheca pannosa = assay: Powdery mildew development on rose leaves after spray treatment; assay type: in vivo; conditions: for Powdery mildew disease rating on rose leaves, per repetition: scale 1 = no symptoms, 5 = 100% infection, Prunus 1 crude, Prunus 2 and SB at 1000 ppm, repetitions 1-3
Experimental: Prunus compositions (including crude Prunus virginiana hydrodistillate, collected in vessel 112 of FIG. 2, having the SPME determined composition of the first entry in Table 1) were tested on diseased plants and were evaluated as a fungicide for controlling Rose powdery mildew. The experiment was set up in a complete randomized block design with three repetitions and four treatments. Treatments were as follows: Prunus 1: crude hydrodistillate from Prunus biomass, Prunus 2: benzaldehyde separated from the crude hydrodistillate at 1,000 ppm, SB-synthetic benzaldehyde, and control-distilled water.
Treatments were applied to infected leaves twice (one week apart) in late July, and once in late August. All leaves were covered with mildew mycelia at the time of the first treatment. One compound leaf was treated with each treatment. Leaves from different stems were treated for each of the three repetition. The treatments were applied with a mist sprayer until run off. Disease development was rated on a scale of 1 to 5, where 1 indicated no symptoms and 5 indicated 100-percent infected. The first disease rating was obtained at the time of the late August treatment, followed by a second disease rating in early September. […] The crude distillate from the Prunus biomass was effective in eliminating or inhibiting the growth of the fungus on the rose leaves. […] The crude hydrodistillate containing all of the volatile compounds identified in Example 1 appeared to act synergistically, relative to purified or synthetic benzaldehyde, to control the rose mildew fungus.

SMILES: O=Cc1ccccc1 [SB, benzaldehyde]
- Powdery mildew disease rating on grape leaves, per repetition (Uncinula necator; reading 9/7, one month after first spray): 2 and 1
- Powdery mildew disease rating on grape leaves, per repetition (Uncinula necator; reading 10/5, about one month after second spray): 3
- Control of grape powdery mildew (in words) (Uncinula necator; spray on infected Pinot Noir leaves, up to second reading): reduced the spread of the mildew fungus, but did not control it
- Mycelial Growth (radial) (Cytospora chrysosperma; 25 ppm in PDA, 1 day after treatment): 0.0 cm
- Mycelial Growth (radial) (Cytospora chrysosperma; 25 ppm in PDA, 2 days after treatment): 1.2 cm
- Mycelial Growth (radial) (Cytospora chrysosperma; 25 ppm in PDA, 3 days after treatment): 2.8 cm
- Mycelial Growth (radial) (Cytospora chrysosperma; 25 ppm in PDA, 4 days after treatment): 3.8 cm
- Mycelial Growth (radial) (Cytospora chrysosperma; 25 ppm in PDA, 5 days after treatment): 4.1 cm
- Mycelial Growth (radial) (Cytospora chrysosperma; 25 ppm in PDA, 6 days after treatment): 4.1 cm
- Mycelial Growth (radial) (Cytospora chrysosperma; 25 ppm in PDA, 7 days after treatment): 4.1 cm
- Mycelial Growth (radial) (Cytospora chrysosperma; 25 ppm in PDA, 14 days after treatment): 4.1 cm
- Mycelial Growth (radial) (Cytospora chrysosperma; 50 ppm in PDA, 1 day after treatment): 0.0 cm
- Mycelial Growth (radial) (Cytospora chrysosperma; 50 ppm in PDA, 2 days after treatment): 1.1 cm
- Mycelial Growth (radial) (Cytospora chrysosperma; 50 ppm in PDA, 3 days after treatment): 2.6 cm
- Mycelial Growth (radial) (Cytospora chrysosperma; 50 ppm in PDA, 4 days after treatment): 3.1 cm
- Mycelial Growth (radial) (Cytospora chrysosperma; 50 ppm in PDA, 5 days after treatment): 4.0 cm
- Mycelial Growth (radial) (Cytospora chrysosperma; 50 ppm in PDA, 6 days after treatment): 4.1 cm
- Mycelial Growth (radial) (Cytospora chrysosperma; 50 ppm in PDA, 7 days after treatment): 4.1 cm
- Mycelial Growth (radial) (Cytospora chrysosperma; 50 ppm in PDA, 14 days after treatment): 4.1 cm
- Mycelial Growth (radial) (Cytospora chrysosperma; 100 ppm in PDA, 1 day after treatment): 0.0 cm
- Mycelial Growth (radial) (Cytospora chrysosperma; 100 ppm in PDA, 2 days after treatment): 1.2 cm
- Mycelial Growth (radial) (Cytospora chrysosperma; 100 ppm in PDA, 3 days after treatment): 2.7 cm
- Mycelial Growth (radial) (Cytospora chrysosperma; 100 ppm in PDA, 4 days after treatment): 3.5 cm
- Mycelial Growth (radial) (Cytospora chrysosperma; 100 ppm in PDA, 5 days after treatment): 4.1 cm
- Mycelial Growth (radial) (Cytospora chrysosperma; 100 ppm in PDA, 6 days after treatment): 4.1 cm
- Mycelial Growth (radial) (Cytospora chrysosperma; 100 ppm in PDA, 7 days after treatment): 4.1 cm
- Mycelial Growth (radial) (Cytospora chrysosperma; 100 ppm in PDA, 14 days after treatment): 4.1 cm
- Mycelial Growth (radial) (Cytospora chrysosperma; 500 ppm in PDA, 1 day after treatment): 0.0 cm
- Mycelial Growth (radial) (Cytospora chrysosperma; 500 ppm in PDA, 2 days after treatment): 0.9 cm
- Mycelial Growth (radial) (Cytospora chrysosperma; 500 ppm in PDA, 3 days after treatment): 2.3 cm
- Mycelial Growth (radial) (Cytospora chrysosperma; 500 ppm in PDA, 4 days after treatment): 3.1 cm
- Mycelial Growth (radial) (Cytospora chrysosperma; 500 ppm in PDA, 5 days after treatment): 4.0 cm
- Mycelial Growth (radial) (Cytospora chrysosperma; 500 ppm in PDA, 6 days after treatment): 4.0 cm
- Mycelial Growth (radial) (Cytospora chrysosperma; 500 ppm in PDA, 7 days after treatment): 4.1 cm
- Mycelial Growth (radial) (Cytospora chrysosperma; 500 ppm in PDA, 14 days after treatment): 4.1 cm
- Mycelial Growth (radial) (Cytospora chrysosperma; 1,000 ppm in PDA, 1 day after treatment): 0.0 cm
- Mycelial Growth (radial) (Cytospora chrysosperma; 1,000 ppm in PDA, 2 days after treatment): 0.7 cm
- Mycelial Growth (radial) (Cytospora chrysosperma; 1,000 ppm in PDA, 3 days after treatment): 1.6 cm
- Mycelial Growth (radial) (Cytospora chrysosperma; 1,000 ppm in PDA, 4 days after treatment): 2.2 cm
- Mycelial Growth (radial) (Cytospora chrysosperma; 1,000 ppm in PDA, 5 days after treatment): 3.3 cm
- Mycelial Growth (radial) (Cytospora chrysosperma; 1,000 ppm in PDA, 6 days after treatment): 4.0 cm
- Mycelial Growth (radial) (Cytospora chrysosperma; 1,000 ppm in PDA, 7 days after treatment): 4.1 cm
- Mycelial Growth (radial) (Cytospora chrysosperma; 1,000 ppm in PDA, 14 days after treatment): 4.1 cm
- Mycelial Growth (radial) (Cytospora chrysosperma; 5,000 ppm in PDA, 1 day after treatment): 0.0 cm
- Mycelial Growth (radial) (Cytospora chrysosperma; 5,000 ppm in PDA, 2 days after treatment): 0.0 cm
- Mycelial Growth (radial) (Cytospora chrysosperma; 5,000 ppm in PDA, 3 days after treatment): 0.0 cm
- Mycelial Growth (radial) (Cytospora chrysosperma; 5,000 ppm in PDA, 4 days after treatment): 0.0 cm
- Mycelial Growth (radial) (Cytospora chrysosperma; 5,000 ppm in PDA, 5 days after treatment): 0.0 cm
- Mycelial Growth (radial) (Cytospora chrysosperma; 5,000 ppm in PDA, 6 days after treatment): 0.1 cm
- Mycelial Growth (radial) (Cytospora chrysosperma; 5,000 ppm in PDA, 7 days after treatment): 0.3 cm
- Mycelial Growth (radial) (Cytospora chrysosperma; 5,000 ppm in PDA, 14 days after treatment): 0.0 cm
- Mycelial Growth (radial) (Cytospora chrysosperma; 10,000 ppm in PDA, 1 day after treatment): 0.0 cm
- Mycelial Growth (radial) (Cytospora chrysosperma; 10,000 ppm in PDA, 2 days after treatment): 0.0 cm
- Mycelial Growth (radial) (Cytospora chrysosperma; 10,000 ppm in PDA, 3 days after treatment): 0.0 cm
- Mycelial Growth (radial) (Cytospora chrysosperma; 10,000 ppm in PDA, 4 days after treatment): 0.0 cm
- Mycelial Growth (radial) (Cytospora chrysosperma; 10,000 ppm in PDA, 5 days after treatment): 0.0 cm
- Mycelial Growth (radial) (Cytospora chrysosperma; 10,000 ppm in PDA, 6 days after treatment): 0.0 cm
- Mycelial Growth (radial) (Cytospora chrysosperma; 10,000 ppm in PDA, 7 days after treatment): 0.0 cm
- Mycelial Growth (radial) (Cytospora chrysosperma; 10,000 ppm in PDA, 14 days after treatment): 0.0 cm
- Powdery mildew disease rating on rose leaves, per repetition (Sphaerotheca pannosa; reading 8/22): 3 and 2
- Powdery mildew disease rating on rose leaves, per repetition (Sphaerotheca pannosa; reading 9/4): 3 and 2
- Control of rose powdery mildew (in words) (Sphaerotheca pannosa; spray on infected rose leaves): less effective in removing the fungus from the infected rose leaves
